Results published in patent publication US9914731B2, “Pyrazolo[1,5-a]pyridine derivatives and methods of their use” (Ignyta, Inc., priority 2013, dated 2018).

Target: recombinant human baculovirus-expressed cMET (Homo sapiens (Human), UniProt P08581)
Assay: c-MET kinase assay (HTRF KinEASE)
Type: biochemical
Details: average of two or more determinations; read-out: c-MET IC50

Q: `CCn1nc(C(=O)Nc2ccc(Oc3cc(-c4cn(C)cn4)cn4nccc34)cn2)c(=O)n(-c2ccc(F)cc2)c1=O` [Example 130, 2-Ethyl-4-(4-fluoro-phenyl)-3,5-dioxo-2,3,4,5-tetrahydro-1,2,4-triazine-6-carboxylic acid{5-[6-(1-methyl-1H-imidazol-4-yl)-pyrazolo[1,5-a]pyridin-4-yloxy]-pyridin-2-yl}-amide] was tested. Which IC50 did it give?
A: < 10 nM

Q: Which IC50 does the source give for `CC(C)n1nc(C(=O)Nc2ccc(Oc3cc(-c4cn(C)cn4)cn4nccc34)cn2)c(=O)n(-c2ccc(F)cc2)c1=O` [Example 131, 4-(4-Fluoro-phenyl)-2-isopropyl-3,5-dioxo-2,3,4,5-tetrahydro-1,2,4-triazine-6-carboxylic acid{5-[6-(1-methyl-1H-imidazol-4-yl)-pyrazolo[1,5-a]pyridin-4-yloxy]-pyridin-2-yl}-amide] here?
A: < 10 nM

Q: With `CCn1cc(C(=O)Nc2ccc(Oc3cc(-c4ncccn4)cn4nccc34)c(F)c2)c(=O)n(-c2ccc(F)cc2)c1=O` [Example 132, 1-Ethyl-3-(4-fluoro-phenyl)-2,4-dioxo-1,2,3,4-tetrahydro-pyrimidine-5-carboxylic acid [3-fluoro-4-(6-pyrimidin-2-yl-pyrazolo[1,5-a]pyridin-4-yloxy)-phenyl]-amide] as the compound, how does the IC50 read?
A: 10 to 100 nM

Q: For `CC(C)n1cc(C(=O)Nc2ccc(Oc3cc(-c4ncccn4)cn4nccc34)c(F)c2)c(=O)n(-c2ccc(F)cc2)c1=O` [Example 133, 3-(4-Fluoro-phenyl)-1-isopropyl-2,4-dioxo-1,2,3,4-tetrahydro-pyrimidine-5-carboxylic acid[3-fluoro-4-(6-pyrimidin-2-yl-pyrazolo[1,5-a]pyridin-4-yloxy)-phenyl]-amide], which IC50 is on record?
A: 10 to 100 nM

Q: `CCn1cc(C(=O)Nc2ccc(Oc3cc(-c4cnccn4)cn4nccc34)c(F)c2)c(=O)n(-c2ccc(F)cc2)c1=O` [Example 134, 1-Ethyl-3-(4-fluoro-phenyl)-2,4-dioxo-1,2,3,4-tetrahydro-pyrimidine-5-carboxylic acid[3-fluoro-4-(6-pyrazin-2-yl-pyrazolo[1,5-a]pyridin-4-yloxy)-phenyl]-amide] was tested. Which IC50 did it give?
A: 10 to 100 nM

Q: How did the IC50 turn out when `CC(C)n1cc(C(=O)Nc2ccc(Oc3cc(-c4cnccn4)cn4nccc34)c(F)c2)c(=O)n(-c2ccc(F)cc2)c1=O` [Example 135, 3-(4-Fluoro-phenyl)-1-isopropyl-2,4-dioxo-1,2,3,4-tetrahydro-pyrimidine-5-carboxylic acid[3-fluoro-4-(6-pyrazin-2-yl-pyrazolo[1,5-a]pyridin-4-yloxy)-phenyl]-amide] was run?
A: 10 to 100 nM

Q: `CCn1cc(C(=O)Nc2ccc(Oc3cc(-c4cccc(C)n4)cn4nccc34)c(F)c2)c(=O)n(-c2ccc(F)cc2)c1=O` [Example 136, 1-Ethyl-3-(4-fluoro-phenyl)-2,4-dioxo-1,2,3,4-tetrahydro-pyrimidine-5-carboxylic acid{3-fluoro-4-[6-(6-methyl-pyridin-2-yl)-pyrazolo[1,5-a]pyridin-4-yloxy]-phenyl}-amide] was tested. Which IC50 did it give?
A: 10 to 100 nM

Q: How did the IC50 turn out when `Cc1cccc(-c2cc(Oc3ccc(NC(=O)c4cn(C(C)C)c(=O)n(-c5ccc(F)cc5)c4=O)cc3F)c3ccnn3c2)n1` [Example 137, 3-(4-Fluoro-phenyl)-1-isopropyl-2,4-dioxo-1,2,3,4-tetrahydro-pyrimidine-5-carboxylic acid{3-fluoro-4-[6-(6-methyl-pyridin-2-yl)-pyrazolo[1,5-a]pyridin-4-yloxy]-phenyl}-amide] was run?
A: 10 to 100 nM

Q: Which IC50 does the source give for `CC(C)n1cc(C(=O)Nc2ccc(Oc3cc(C(=O)N(C)C)cn4nccc34)c(F)c2)c(=O)n(-c2ccc(F)cc2)c1=O` [Example 138, 4-(2-Fluoro-4-{[3-(4-fluoro-phenyl)-1-isopropyl-2,4-dioxo-1,2,3,4-tetrahydro-pyrimidine-5-carbonyl]-amino}-phenoxy)-pyrazolo[1,5-a]pyridine-6-carboxylic acid dimethylamide] here?
A: < 10 nM
